Experimental data: US10543171B2, “Dermal drug delivery using amphiphilic dendron-coil micelles” (THE BOARD OF TRUSTEES OF THE UNIVERSITY OF ILLINOIS, priority 2013, dated 2020)
pKd: −log10 of the molar value. Entries after “also recorded” stand apart in the source; their conditions may differ.

Tests used:
MDA-MB-231 cells = assay: in vitro anti-proliferation assay (MTS) against MDA-MB-231; format: cell-based; conditions: ER-negative; comparable drug concentrations; listed as free EDX
[1] = 25° C.; cited from earlier work
folate receptors (FR) = conditions: read-out: affinity for FR (KD); cited from earlier work
[2] = skin deposition of Cou6 from two-dye dendron micelles (CLSM, spectrofluorometer); format: in vitro ADME, mouse
Description: To prepare two-dye dendron micelles, two milligrams of acetylated, RHO-labeled PDC (PDC-RHO-Ac) was combined with 10 mg of unlabeled surface modified PDC in 1.2 mL DMF, and 2% (wt %) of Cou6 was added to the mixture. The materials were fully dissolved and mixed by brief vortexing followed by gentle shaking for 2 h. The Cou6-encapsulated, RHO-labeled dendron micelles were prepared by the dialysis method, and the solid material was obtained by lyophilization as described above.
SKH-1 hairless mouse skin was exposed to the Cou6-loaded micelles with different surfaces for 24 h in the Franz cell setup. The skin area that was exposed to the treatment was carefully collected, rinsed twice with ddH2O for 10 min and embedded into cryomolds (Tissue-Tek®, Sakura Finetek USA, Inc., Torrance, Calif.). Skin was cryosectioned into 80 um-thick slices and placed on anti-frost glass slides. The slides were then fixed by 10% neutral buffered formalin for 10 min at RT and rinsed with ddH2O. The skin slides were mounted with antiphotobleaching mounting media with DAPI (Vector Laboratory Inc., Burlingame, Calif.) and covered with glass cover slips. […]
After the two-dye micelle experiment, the fluorescence intensity in the donor and receiver solutions, as well as skin extracts were detected using a SoftMax Pro spectrofluorometer (Spectra MAX, Molecular Devices Inc., Sunnyvale, Calif.). […]

Q: What does the source list for CC/C(=C(\c1ccc(O)cc1)c1ccc(OCCNC)cc1)c1ccccc1 [EDX, 4-hydroxy-N-desmethyl tamoxifen]?
A: anti-proliferative effect / cytotoxicity against MDA-MB-231 cells (MDA-MB-231 cells): neither free EDX nor EDX-loaded micelles had significant cytotoxicity; also recorded: Neither free EDX nor EDX-loaded DMs exhibited significant anti-proliferative effect; partition coefficient (log P) [1]: 6.01

Q: With Nc1nc2ncc(CNc3ccc(C(=O)N[C@@H](CCC(=O)O)C(=O)O)cc3)nc2c(=O)[nH]1 [FA, folic acid] as the molecule, how does the pKd (folate receptors (FR)) read?
A: ~10.00

Q: For CCN(CC)c1ccc2cc(-c3nc4ccccc4s3)c(=O)oc2c1 [free Cou6, Coumarin-6], which “Cou6 delivered into skin (skin extract)” value ([2]; Cou6-encapsulated, RHO-labeled micelles or free Cou6 in ethanol, mouse skin) is on record?
A: 26.48±2.51%

Q: And the “Cou6 distribution in skin layers (CLSM)” value ([2]; mouse skin cross-sections after Franz cell experiment)?
A: could not diffuse efficiently into the skin layers
